# According to ChEMBL document CHEMBL1138438, “Structural-activity relationship study of highly-functionalized imidazolines as potent inhibitors of nuclear transcription factor-kappaB mediated IL-6 production” (Bioorg Med Chem, 2009):
# Active and inactive are the calls of the source. No cut-off for these calls is given here.
# Legend:
# HeLa [1] = assay: Cell cycle arrest in TNF-alpha-stimulated human HeLa cells transfected with NFkappaB-Luc assessed as accumulation at diploid G2 phase at 0.1 uM after 8 hrs by using propidium iodide staining by FACS analysis; assay type: functional
# HeLa [2] = assay: Effect on cell cycle arrest in human HeLa cells transfected with NFkappaB-Luc assessed as cell debris level at 20 uM after 8 hrs by using propidium iodide staining by FACS analysis; assay type: functional
# HeLa [3] = assay: Cell cycle arrest in human HeLa cells transfected with NFkappaB-Luc assessed as accumulation at total S phase at 20 uM after 8 hrs by using propidium iodide staining by FACS analysis; assay type: functional
# HeLa [4] = assay: Cell cycle arrest in TNF-alpha-stimulated human HeLa cells transfected with NFkappaB-Luc assessed as accumulation at diploid G2 phase at 1 uM after 8 hrs by using propidium iodide staining by FACS analysis; assay type: functional
# HeLa [5] = assay: Cell cycle arrest in TNF-alpha-stimulated human HeLa cells transfected with NFkappaB-Luc assessed as accumulation at diploid G1 phase at 0.5 uM after 8 hrs by using propidium iodide staining by FACS analysis; assay type: functional
# [6] = Cytotoxicity against human whole blood lymphocytes assessed as survival cell count in millions at 10 uM after 24 hrs by trypan blue staining-based hemocytometry
# HeLa [7] = assay: Effect on cell cycle arrest in TNF-alpha-stimulated human HeLa cells transfected with NFkappaB-Luc assessed as total background cell aggregate and debris level at 0.1 uM after 8 hrs by using propidium iodide staining by FACS analysis; assay type: functional
# [8] = Inhibition of NF-kappaB-mediated gene transcription expressed in TNF-alpha-stimulated human HeLa cells co-transfected with renilla luciferase-TK gene preincubated for 30 mins before TNFalpha challenge measured after 8 hrs by dual-glo luciferase reporter gene assay; assay type: cell-based
# HeLa [9] = assay: Cell cycle arrest in TNF-alpha-stimulated human HeLa cells transfected with NFkappaB-Luc assessed as accumulation at diploid G2 phase at 10 uM after 8 hrs by using propidium iodide staining by FACS analysis; assay type: functional
# HeLa [10] = assay: Effect on cell cycle arrest in TNF-alpha-stimulated human HeLa cells transfected with NFkappaB-Luc assessed as cell debris level at 0.5 uM after 8 hrs by using propidium iodide staining by FACS analysis; assay type: functional
# HeLa [11] = assay: Cell cycle arrest in TNF-alpha-stimulated human HeLa cells transfected with NFkappaB-Luc assessed as accumulation at total S phase at 1 uM after 8 hrs by using propidium iodide staining by FACS analysis; assay type: functional
# HeLa [12] = assay: Cell cycle arrest in TNF-alpha-stimulated human HeLa cells transfected with NFkappaB-Luc assessed as accumulation at diploid stage at 1 uM after 8 hrs by using propidium iodide staining by FACS analysis; assay type: functional
# HeLa [13] = assay: Cell cycle arrest in TNF-alpha-stimulated human HeLa cells transfected with NFkappaB-Luc assessed as accumulation at diploid stage at 10 uM after 8 hrs by using propidium iodide staining by FACS analysis; assay type: functional
# HeLa [14] = assay: Cell cycle arrest in TNF-alpha-stimulated human HeLa cells transfected with NFkappaB-Luc assessed as accumulation at diploid G1 phase at 0.05 uM after 8 hrs by using propidium iodide staining by FACS analysis; assay type: functional
# HeLa [15] = assay: Effect on cell cycle arrest in TNF-alpha-stimulated human HeLa cells transfected with NFkappaB-Luc assessed as cell debris level at 1 uM after 8 hrs by using propidium iodide staining by FACS analysis; assay type: functional
# HeLa [16] = assay: Effect on cell cycle arrest in TNF-alpha-stimulated human HeLa cells transfected with NFkappaB-Luc assessed as cell aggregate level at 10 uM after 8 hrs by using propidium iodide staining by FACS analysis; assay type: functional
# [17] = Cytotoxicity against IL-1-beta-stimulated human whole blood lymphocytes assessed as survival cell count in millions at 1 uM after 24 hrs by trypan blue staining-based hemocytometry
# [18] = Cytotoxicity against human 184B5 cells after 24 hrs by MTS assay; assay type: cell-based
# HeLa [19] = assay: Stimulation of NF-kappaB-mediated gene transcription expressed in human HeLa cells for 30 mins before TNFalpha challenge measured after 8 hrs by steady-glo luciferase reporter gene assay; assay type: cell-based
# HeLa [20] = assay: Cell cycle arrest in TNF-alpha-stimulated human HeLa cells transfected with NFkappaB-Luc assessed as accumulation at G2/G1 phase at 1 uM after 8 hrs by using propidium iodide staining by FACS analysis; assay type: functional
# HeLa [21] = assay: Cell cycle arrest in TNF-alpha-stimulated human HeLa cells transfected with NFkappaB-Luc assessed as accumulation at G2/G1 phase at 0.05 uM after 8 hrs by using propidium iodide staining by FACS analysis; assay type: functional
smiles,measurement,setting,value
CCOC(=O)[C@]1(c2ccccc2)N=C(c2ccccc2)N(Cc2ccccc2)[C@@H]1c1ccccc1 (racemic),Activity,HeLa [1],14.03%
same,Activity,HeLa [2],9.42%
same,Activity,HeLa [3],21.48%
same,Activity,HeLa [4],13.88%
same,Activity,HeLa [5],64.08%
same,Activity,[6],1.04 mL⁻¹
same,Activity,HeLa [7],0.58%
same,EC50,[8],4.67 µM
same,Activity,HeLa [9],15.01%
same,Activity,HeLa [10],3.68%
same,Activity,HeLa [11],22.9%
same,Activity,HeLa [12],100%
same,Activity,HeLa [13],100%
same,Activity,HeLa [14],64.3%
same,Activity,HeLa [15],4.88%
same,Activity,HeLa [16],0%
same,Activity,[17],1.18 mL⁻¹
same,CC50 at 24 h,[18],> 10 µM
same,Activity,HeLa [19],inactive
same,Activity,HeLa [20],1.91%
same,Activity,HeLa [21],1.91%
